Assay results taken from patent US20240238268A1, “TREATMENTS AND METHODS FOR TREATING ALZHEIMER'S DISEASE” (Board of Supervisors of Louisiana State University and …, priority 2021, published 2024).

Target: T1, PRMT4 (Mus musculus, UniProt Q9WVG6)
T1 construct: Protein was extracted from dissected tissue in an extraction buffer; from tissue; host or cells: mouse brain (cortex, hippocampus, whole brain lysate) of 3xTg-AD and C57BL/6J mice
T1 sequence (Q9WVG6 1-608): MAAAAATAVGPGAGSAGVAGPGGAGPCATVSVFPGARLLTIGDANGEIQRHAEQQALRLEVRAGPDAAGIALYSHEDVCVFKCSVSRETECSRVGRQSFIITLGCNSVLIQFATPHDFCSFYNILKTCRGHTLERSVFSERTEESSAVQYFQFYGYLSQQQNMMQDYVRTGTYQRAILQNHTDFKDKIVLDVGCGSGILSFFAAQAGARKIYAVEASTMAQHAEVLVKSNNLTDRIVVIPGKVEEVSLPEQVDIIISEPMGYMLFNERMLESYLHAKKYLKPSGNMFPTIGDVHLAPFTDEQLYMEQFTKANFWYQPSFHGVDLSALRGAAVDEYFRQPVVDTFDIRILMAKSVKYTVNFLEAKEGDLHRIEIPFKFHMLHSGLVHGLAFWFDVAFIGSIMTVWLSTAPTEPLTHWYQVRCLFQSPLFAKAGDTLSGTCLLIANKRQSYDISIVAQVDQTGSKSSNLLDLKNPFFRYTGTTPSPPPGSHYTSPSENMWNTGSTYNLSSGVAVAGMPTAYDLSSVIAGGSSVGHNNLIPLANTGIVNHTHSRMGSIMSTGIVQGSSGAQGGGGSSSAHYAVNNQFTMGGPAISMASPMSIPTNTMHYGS
Experiment: PRMT4 protein level in brain, capillary-based immunoassay
Type: in vivo
Conditions: IP
Procedure: Dosage, delivery of TP-064: PRMT4 specific inhibitor (TP-064, 30 mg/kg/day for 7 days, IP) was administered once daily for 7 or 21 days to young (4-6 months) and aged (9-12 months) C57BL/6J and 3xTg-AD, male and female mice. The inventors have found a dose response curve that evidences that 30 mg/kg (I.P.) of TP-064 decreases PRMT4 (FIG. 10A). TP-064 was dissolved in 100% DMSO, diluted in 0.9% saline (total injection volume=100 μL, ˜1.5% DMSO in mouse), greater than 5% DMSO can affect the brain.
Treatment regimen: Aged (9-12 month) females from both C57BL6/J as well as 3xTg-AD strains were randomly selected and placed in experimental groups. Treatment consisted of specific PRMT4 inhibitor TP-064 (Cat. No. 6008, Tocris, Minneapolis, MN) (Zhang, de Boer, van der Wel, Van Eck, & Hoekstra, 2021); (Zhong et al., 2018). The pharmacological mechanism of TP-064 has not been well-elucidated though it is thought to act as an allosteric inhibitor of the PRMT4 active site (Nakayama et al., 2018). Based on the pharmacokinetic data provided by the Structural Genomics Consortium (https://www.thesgc.org/), a dose of 30 mg/kg was selected. […] Final dose was calculated based on animal weight.
Capillary-phoresis immunoassay via ProteinSimple®: Quantification of all protein targets was achieved using Simple Western analysis in a Jess™ apparatus per the manufacturer's protocol (ProteinSimple, Bio-techne, Minneapolis, MN). […] Following homogenization and centrifugation (10,000×g, 5 min, 4° C.), protein concentration was determined in tissue protein supernatant samples using DC Protein Assay (Cat. No. 5000112, Bio-Rad Laboratories, Hercules, California) according to manufacturer instructions. […] Antibody diluent (ProteinSimple, Bio-techne, Minneapolis, MN) was used for all antibody dilutions as follows: PRMT4 (1:50, RRID: AB_2068436), PRMT6 (1:100, Cell Signaling Technology cat. 14641), eNOS (1:200, RRID: AB_10850618), nNOS (1:100, RRID: AB_2152488), iNOS (1:100, RRID: AB_10000625), DDAH2 (1:50, RRID: AB_2640442) Antibodies were detected using HRP-conjugated secondary anti-rabbit, and -mouse. […]

[1] = aged 3xTg-AD female mice, 30 mg/kg for 7 days, normalized to total protein

cortical PRMT4 protein level [1]: reduced
hippocampal PRMT4 protein level [1]: reduced
SMILES: CNCCN1CCC(c2cc(CN(C)C(=O)c3cccc(Oc4ccccc4)c3)ccn2)CC1 [TP-064, N-Methyl-N-((2-(1-(2-(methylamino)ethyl)piperidin-4-yl)pyridin-4-yl)methyl)-3-phenoxybenzamide]
PRMT4 expression in whole brain lysate (3xTg-AD mice, 7.5, 15 and 30 mg/kg, 7 days, relative to untreated 3xTg-AD): reduced PRMT4 expression in whole brain lysate in a dose-dependent manner
